A short description of the series: Degradation pathway for allopregnanolone in SBECD formulations. It counts as physicochemical. From the text: FIG. 1 summarizes the two major degradation pathways found for allopregnanolone in SBECD formulations.

Turning to `CC(=O)[C@H]1CC[C@H]2[C@@H]3CC[C@H]4C[C@H](O)CC[C@]4(C)[C@H]3CC[C@]12C` [allopregnanolone, 3 alpha-hydroxy-5 alpha-pregnan-20-one], the major degradation pathway entry reads like this: (pH of ~6 or less) “epimerization of allopregnanolone to compound 1269”; (pH of ~6 or more) “oxidation of allopregnanolone to compound 136”.

The values above are taken from patent publication US20190350944A1, “NEUROACTIVE STEROID SOLUTIONS AND THEIR METHODS OF USE” (Sage Therapeutics, Inc., priority 2015, published 2019).
